Assay results published in US20230090255A1, “MAGL INHIBITOR, PREPARATION METHOD THEREFOR AND USE THEREOF” (LUNAN PHARMACEUTICAL GROUP CORPORATION, priority 2019, published 2023).

How the values were obtained:
[1] = molecular target: T1, recombinant human protein MAGL (Homo sapiens, UniProt Q99685); assay: MAGL enzyme analysis (Cayman MAGL inhibitor screening kit); type: biochemical; details: 4-nitrophenylacetic acid substrate, absorbance 410 nm, read-out: MAGLXIC50
T1 construct: purchased Cayman
T1 sequence (Q99685 1-303): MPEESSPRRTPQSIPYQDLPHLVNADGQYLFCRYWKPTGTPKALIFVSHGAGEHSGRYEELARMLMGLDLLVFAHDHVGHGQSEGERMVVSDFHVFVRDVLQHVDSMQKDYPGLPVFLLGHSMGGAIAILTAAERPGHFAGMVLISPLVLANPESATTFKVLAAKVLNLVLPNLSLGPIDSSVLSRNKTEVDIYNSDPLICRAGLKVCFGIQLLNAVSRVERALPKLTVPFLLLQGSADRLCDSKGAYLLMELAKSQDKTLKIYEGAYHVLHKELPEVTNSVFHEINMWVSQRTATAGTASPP

[2] = test system: mice forced swimming test; assay: Mice forced swimming test; type: in vivo, ICR mice; details: forced swimming, 6 min; 5 mg/kg intragastric once per day 10 d, 1 h after final administration
Experimental: (§1) Male ICR mice having a body weight of 18-22 g. The animals were active on a schedule of normal illumination for 12 h and in the dark for 12 h. Environmental temperature and relative humidity were relatively kept for 22±1° C. and 55±5%.
(§2) There were 7 groups of laboratory mice, 10 pieces each group, set as a control group (normal saline), a positive control group (fluoxetine hydrochloride capsule, 5 mg/kg), 5 MAGLZ-II series of administration treatment groups: MAGLZ-II-06, MAGLZ-II-07, MAGLZ-II-11, MAGLZ-II-17 and MAGLZ-II-18, respectively, with an administration concentration of 5 mg/kg.
(§3) All medicaments were used once per day via intragastric administration with a dose of 20 mL/kg (body weight), lasting for 10 d. 1 h later after the final administration, the detection of animal behaviors was started.
Mice forced swimming test was performed according to the method established by Porsolt (Porsolt R D. Behavioural despair in mice: A primary screening test for antidepressants[J]. Arch. Int. Pharmacolodyn. 1977, 229). […] Each mouse was judged as still when stopped struggling, kept suspension in water and only made necessary movement to keep the head above the water.
(§4) All data are shown by x̅±SD, and the comparison among groups is analyzed by one-way variance.

[3] = test system: mice tail suspension test; assay: Mice tail suspension test; type: in vivo, ICR mice; details: final 4 min of 6 min, 5 mg/kg intragastric once per day 10 d
Experimental: as §1, §2, §3
The tail suspension test (TST) was performed by the method established by Porsolt, et al. (Porsolt R D, Le Pichon M, Jalfre M. Depression: a new animal model sensitive to antidepressant treatments[J]. Nature, 1977, 266(5604):730-732). Mice were respectively suspended on the tail portions with tail suspension clamps at a distance of 10 mm away from the tail portion of the box (250 mm×250 mm×300 mm) and a distance of 5 cm where the head of each mouse was away from the bottom portion. Noise was tested in a dark room having minimum background, and each mouse was suspended for 6 min, and an immobility time was recorded at intervals in the final 4 min. Judgment standard: the mice stopped struggling and kept still completely.
as §4

[4] = test system: irritable bowel syndrome rats; assay: Irritable bowel syndrome rats induced by early maternal separation; type: in vivo, SD rats; set-up: AWR scoring: scale not given here; details: for Colon 5-HT / Serum 5-HT / AWR scoring: IBS rats; for 5-HT level in colon and serum, in words / AWR scoring, in words: compared with the model group
Experimental: The newborn SD male rats were separated from the mother rat in lactation period for 3 h every day on the 2nd to the 21st day after the birth of the newborn SD rats, namely, the mother rat in lactation period was taken out of the cage at 8:30 a.m., and then the newborn rats were removed from the initial cage and put to another separate cage, then the cage was transferred to an adjacent room, then the newborn rats were returned to the initial cage 3 h later, namely, at 11:30 such that the newborn rats and the mother rat got together; the newborn rats were weaned on the 22nd day after birth and separated from the initial cage on the 30th day, grouped on the 60th day, and administered, 20 d in total.
Intragastric administration was performed within the administration period once a day with continuous administration for 20 d.
Test indicators: abdominal withdrawal reflex (AWR); test method: rats were fasted 18 h before the experiment and drank water freely, and narcotized with diethyl ether; then an air sac coated with paraffin oil was inserted into the rats’ colorectum for 4.0 cm, and a catheter outside the anus was fixed at the root of the rat tail with an adhesive tape, and connected with an injection syringe and a sphygmomanometer via three links. The rats were put to an organic glass inspection box (20 cmx12 cm×9 cm), after the rats were awake and fully adapted to the environment for 30 min, the experiment was started. 20, 40 and 60 mm Hg of pressure were respectively applied on the rats, and continuous expansion was performed for 20 s each time with a stimulus interval of 4 min; each pressure was performed for 3 times repeatedly for AWR scoring.
At the end of the experiment, the animals were dissected and weighed, and narcotized to take blood, then the content of 5-HT in serum was determined by high performance liquid chromatography. […] slightly with 0.5% sodium carboxymethylcellulose, and then sucked dry with a filter paper, and placed into a cryogenic tube, and preserved at -20° C. for further use, […] chromatography.

[5] = test system: mice writhing caused by acetic acid; assay: Mice writhing caused by acetic acid; details: for Writhing times: 1 h before 0.7% acetic acid ip, within 20 min; for Latent time: time to first writhing; for Inhibition ratio: writhing inhibition
Experimental: Each compound was prepared into a suspension by 0.5% sodium carboxymethylcellulose respectively, and then set according to the dose, and each administration group was administered intragastrically; the model group was administered intragastrically an equal volume of 0.5% sodium carboxymethylcellulose.
Mice were intraperitoneally injected with acetic acid to cause a large area and more lasting painful stimuli in deep enterocoelia, causing mice to produce writhing responses. After being administered for 1 h, each dose group was intraperitoneally injected with 0.7% acetic acid-normal saline solution (0.1 ml/10 g).
The time (pain latent time) that the mice started to appear writhing after being intraperitoneally injected with acetic acid was recorded.
The writhing response times of each mouse within 20 min were recorded after injecting acetic acid to cause pain, and then, the writhing inhibition ratio of each administration group was calculated.
Writhing inhibition ratio = [(writhing times of the control group -writhing times of the administration group)/writhing times of the control group] × 100%
Experimental data is shown by x±s and subjected to variance analysis by SPSS 15.0 software.

[6] = high dose 30 mg/kg ig 20 d, 20 mm Hg
[7] = high dose 30 mg/kg ig 20 d, 40 mm Hg
[8] = high dose 30 mg/kg ig 20 d, 60 mm Hg
[9] = low dose 7.5 mg/kg ig 20 d, 20 mm Hg
[10] = low dose 7.5 mg/kg ig 20 d, 40 mm Hg
[11] = low dose 7.5 mg/kg ig 20 d, 60 mm Hg
[12] = middle dose 15 mg/kg ig 20 d, 20 mm Hg
[13] = middle dose 15 mg/kg ig 20 d, 40 mm Hg
[14] = middle dose 15 mg/kg ig 20 d, 60 mm Hg

Row | Compound | IC50 [1] [nM] | Accumulated immobility time [2] [S] | Accumulated immobility time [3] [S] | Colon 5-HT ([4]; high dose 30 mg/kg ig 20 d) | Serum 5-HT ([4]; high dose 30 mg/kg ig 20 d) | AWR scoring [4, 6] | AWR scoring [4, 7] | AWR scoring [4, 8] | Colon 5-HT ([4]; low dose 7.5 mg/kg ig 20 d) | Serum 5-HT ([4]; low dose 7.5 mg/kg ig 20 d) | AWR scoring [4, 9] | AWR scoring [4, 10] | AWR scoring [4, 11] | Colon 5-HT ([4]; middle dose 15 mg/kg ig 20 d) | Serum 5-HT ([4]; middle dose 15 mg/kg ig 20 d) | AWR scoring [4, 12] | AWR scoring [4, 13] | AWR scoring [4, 14] | 5-HT level in colon and serum, in words [4] | AWR scoring, in words [4] | other results
1 | O=C(Nc1cccc(Cl)c1)C1CCN(C(=O)c2cc3ccccc3[nH]2)CC1 [MAGLZ-II-18] | 670 | 81.71±38.12 | 79.68±25.72 | 14.33±2.10^∗∗∗ µg/mg | 30.86±5.28^∗∗∗ µg/ml | 1.87±0.36^∗∗ ∗ | 2.6±0.54^∗∗∗ | 3.09±0.34^∗∗∗ | 21.91 ± 2.46 µg/mg | 35.73 ± 3.32 µg/mL | 2.59±0.33 | 3.26±0.39 | 3.65±0.23^∗ | 14.89±3.19^∗∗ µg/mg | 29.12±7.05^∗∗ µg/ml | 2.29±0.36^∗∗ | 3.01±0.40^∗∗ | 3.3±0.45^∗∗ | significantly decrease | significantly decrease | Writhing times ([5]; high dose 30 mg/kg ig): 15.8±15.3; Latent time ([5]; high dose 30 mg/kg ig): 410.9 ± 186.5 s; Inhibition ratio ([5]; high dose 30 mg/kg ig): 59.8%; Writhing times ([5]; low dose 7.5 mg/kg ig): 25.0±13.5; Latent time ([5]; low dose 7.5 mg/kg ig): 318.7 ± 120.2 s; Inhibition ratio ([5]; low dose 7.5 mg/kg ig): 36.4%; Writhing times ([5]; middle dose 15 mg/kg ig): 21.8±12.4; Latent time ([5]; middle dose 15 mg/kg ig): 381.4 ± 127.1 s; Inhibition ratio ([5]; middle dose 15 mg/kg ig): 44.5%
2 | O=C(Nc1cccc(Cl)c1)C1CCN(C(=O)c2cccc(O)c2)CC1 [MAGLZ-II-11] | 96 | 73.57±27.28 | 72.81±23.49 | 12.00±2.93^∗∗∗ µg/mg | 23.82±6.34^∗∗∗ µg/ml | 1.39±0.30^∗∗ ∗ | 1.92±0.33^∗∗∗ | 2.86±0.26^∗∗∗ | 16.24±2.34^∗∗ µg/mg | 31.75±5.33^∗∗ µg/ml | 2.50±0.38^∗ | 3.00±0.49^∗∗ | 3.60±0.22^∗∗ | 14.33±2.10^∗∗∗ µg/mg | 29.47±4.91^∗∗∗ µg/ml | 2.02±0.57^∗∗ | 2.42±0.41^∗∗∗ | 3.03±0.37^∗∗∗ | significantly decrease | significantly decrease | latent time, in words ([5]; compared with the model group): extend; mice writhing times caused by acetic acid, in words ([5]; compared with the model group): significantly decrease; Writhing times ([5]; high dose 30 mg/kg ig): 13.6±13.1; Latent time ([5]; high dose 30 mg/kg ig): 467.8 ± 175.6 s; Inhibition ratio ([5]; high dose 30 mg/kg ig): 65.4%; Writhing times ([5]; low dose 7.5 mg/kg ig): 23.4±11.7; Latent time ([5]; low dose 7.5 mg/kg ig): 379.7 ± 129.3 s; Inhibition ratio ([5]; low dose 7.5 mg/kg ig): 40.5%; Writhing times ([5]; middle dose 15 mg/kg ig): 17.5±9.6; Latent time ([5]; middle dose 15 mg/kg ig): 408.4 ± 128.2 s; Inhibition ratio ([5]; middle dose 15 mg/kg ig): 55.5%
